Here are results for 4 molecules from patent US10294226B2, “Small molecule inhibitors of the JAK family of kinases” (Janssen Pharmaceutica NV, priority 2016, dated 2019).

As usually defined, the Papp B→A is the apparent permeability from the basolateral to the apical side of a cell layer. The term solubility denotes the dissolved amount per volume that the medium holds. Broadly, the IC50 is the concentration needed to halve the response being measured.

Series [1] is described as follows: MDCK-MDR1 permeability assay. The series is classed as in vitro ADME. To be noted: MDCK-MDR1, pH 7.4, @ 5 μM, apical to basolateral, with P-gp inhibitor elacridar (2 μM); read-out: MDCK-MDR1 P^eapp(A-B).
Procedure: (§5) Permeability measurements were conducted according to the Cyprotex protocol using the MDCK-MDR1 cell line obtained from the NIH (Rockville, Md., USA). […] The cells in this assay form a cohesive sheet of a single cell layer filing the surface area of the culture dish, also known as a confluent monolayer, and on day four the test compound was added to the apical side of the membrane and the transport of the compound across the monolayer was monitored over a time period of 60 min.
(§6) Test compounds were dissolved in DMSO at a concentration of 10 mM. The dosing solutions were prepared by diluting test compound with assay buffer (Hanks Balanced Salt Solution), pH 7.4, at a final concentration of 5 μM. For assessment of apical to basolateral (“A-B”) permeability, buffer was removed from the apical compartment and replaced with test compound dosing solution with or without the permeability glycoprotein (“PgP”, “P-gP”, “Pgp” or “P-gp”) inhibitor elacridar (2 μM). For assessment of basolateral to apical (“B-A”) permeability, buffer was removed from the companion plate and replaced with test compound dosing solution. Incubations were carried out in duplicate at 37° C. in an atmosphere of 5% CO2 with a relative humidity of 95%. […] After incubation for 60 minutes, apical and basolateral samples were diluted and test compounds quantified by LC/MS/MS using an 8-point calibration in the range 0.0039 to 3 μM with appropriate dilution of the samples (receiver dilution factor=1; donor and C0 dilution factor=10). The permeability coefficient (Papp) for each compound was calculated from the following equation: Papp=(dQ/dt)/(C0×S), where dQ/dt is the rate of permeation of the drug across the cells, C0 is the donor compartment concentration at time zero, and S is the area of the cell monolayer.
(§7) The percent recovery was measured for all incubation conditions.
(§8) Papp(A-B) gives an indication of permeation extent across the cells in this assay, which is envisaged to model the transcellular transport across Pgp-expressing cells, such as Pgp-expressing gastrointestinal tract cells.
(§9) The integrity of each monolayer was monitored by examining the permeation of lucifer yellow by fluorimetric analysis.
Series [2] concerns P-gp (MDR1). Nature of the series: MDCK-MDR1 permeability assay. Format: in vitro ADME. The settings on record: dog; for Papp A→B at 60 min, 5 μM: apical to basolateral; for Papp B→A at 60 min, 5 μM: MDCK-MDR1, pH 7.4, basolateral to apical; for efflux ratio at 60 min, 5 μM: pH 7.4, MDCK-MDR1, @ 5 μM, read-out: Papp(B-A)/Papp(A-B) efflux ratio.
Procedure: as §5, §6, §7, §8, §9
Series [3] is described as follows: physchem. The settings on record: thermodynamic from solid.
The nature of series [4]: In vivo oral (p.o.) dosing, plasma and colon concentrations (Protocols 1 and 2). Further details: species or system female C57BL/6 mice. To be noted: mice, 25 mg/kg p.o. The procedure: These protocols are described below under the heading In vivo Studies. Three non-fasted female C57BL/6 mice were orally administered test compound at a dose of 25 mg/kg p.o. as a solution in 20% hydroxypropyl-beta-cyclodextrin (HPβCD) at a dose volume of 5 mL/kg. Blood samples were collected at 0.5, 2, and 4 h post dose via retro-orbital bleed or venipuncture of the dorsal metatarsal vein. Blood samples were collected into tubes containing anticoagulant (Heparin-Na) and placed on wet ice. […] Colon samples were collected at 4 h post dose. […] The colon was further washed by putting it in 5 mL of saline and shaken for 5 seconds. The colon sample was then patted dry, weighed, and homogenized as 1 part tissue (g) to 4 parts HPLC grade water (mL). Concentrations of the compound in plasma and colon homogenate were determined using a qualified liquid chromatography-triple quadrupole mass spectrometry (LC-MS/MS) method. […] Three non-fasted female C57BL/6 mice were orally administered test compound at a dose of 25 mg/kg p.o. as a solution in 20% HPβCD at a dose volume of 5 mL/kg. Blood samples were collected at 0.5, 2, and 4 h post dose via retro-orbital bleed or dorsal metatarsal vein. Blood samples were collected into tubes containing anticoagulant (Heparin-Na) and placed on wet ice. […] Colon samples were collected at 4 h post dose. […] The colon was further washed by putting it in 5 mL of saline and shaken for 5 seconds. The colon sample was then patted dry, weighed, and homogenized as 1 part tissue (g) to 4 parts HPLC grade water (mL). Concentrations of the compound in plasma and colon homogenate were determined using a qualified liquid chromatography-triple quadrupole mass spectrometry (LC-MS/MS) method.

The test system of series [5] is IL-2 pSTAT5 (JAK1/JAK3). Nature of the series: IL-2 pSTAT5 (JAK1/JAK3) cellular assay, AlphaLISA in PBMCs. The series is classed as cell-based. To be noted: PBMC, IL-2 5 ng/mL. Here is the method: The AlphaLISA assay (based on Alpha Technology from PerkinElmer) was performed by first plating freshly thawed PBMCs (Biological Specialty Corporation) in 384-well plates at 30,000 cells per 4 μL per well in HBSS (Hanks' Balanced Salt Solution) containing 0.1% IgG (immunoglobulin G)-free, protease-free BSA (bovine serum albumin) (Jackson ImmunoResearch Cat. No. 001-000-161). The cells were then treated with 2 μL/well of compounds diluted in DMSO at half-log titrated concentrations, with a highest test concentration of 10 μM and 0.5% final DMSO concentration, for thirty minutes at 37° C. […] The cellular reactions were terminated by the addition of 2 μL/well of lysis buffer (PerkinElmer Cat. No. ALSU-PST5-A10K) followed by an incubation of five minutes at room temperature. 5 μL/well of acceptor mix (PerkinElmer Cat. No. ALSU-PST5-A10K) was added to the cells and incubated in the dark for one hour at room temperature. Then, 5 μL/well of donor mix (PerkinElmer Cat. No. ALSU-PST5-A10K) was added to the cells and incubated in the dark overnight at room temperature. Finally, the plates were read on a PerkinElmer EnVision for detection of the time-resolved fluorescence signal. The percentage of IL-2-dependent pSTAT5 inhibition was determined at the compound test concentrations; and for each compound, a dose curve was generated and the IC50 was calculated. Compound IC50 was calculated by nonlinear regression, sigmoidal dose response analysis of the half-log dilution titration curve of the compound concentration vs. Alpha signal. The acronym “Alpha” stands for amplified luminescent proximity homogeneous assay; the Alpha signal is a luminescent/fluorescent signal.

In series [6] the target is JAK1-JH1JH2 (Homo sapiens (Human), UniProt P23458). Nature of the series: Enzymatic inhibition assay (HTMS). The series is classed as biochemical. To be noted: 12.5 μM ATP; read-out: JAK1_JH1JH2 IC50. An excerpt: (§1) JAK1-JH1JH2 (574-1154 with a His-GST Tag and a C-terminal tev (ENLYFQ-G) cleavage site), JAK3-JH1JH2 (512-1124 with a GST Tag and a C-terminal tev (ENLYFQ-G) cleavage site), and Tyk2-JH1JH2 (8H_tev_580-1182-C936A-C1142A with a C-terminal tev (ENLYFQ-G) cleavage site) were purified internally. […] LC/MS grade water and acetonitrile (ACN), were purchased from HoneyWell, Burdick & Jackson (Muskegon, Mich., USA). Dimethylsulfoxide 99.8% (DMSO) and trifluoroacetic acid 99.5% (TFA) were purchased from EMD Chemical (Gibbstown, N.J., USA). Adenosine triphosphate (ATP), 4-morpholinepropanesulfonic acid (MOPS), magnesium chloride (MgCl2), ethylenediaminetetraacetic acid (EDTA), dithiothreitol (DTT), formic acid>95% (FA) and Tween-20 were purchased from Sigma (St Louis, Mo., USA). 384-well polypropylene plates, Cat#781280 were purchased from Greiner (Monroe, N.C.), RapidFire™ cartridge A C4 Column (Agilent Technologies, Santa Clara, Calif.).
(§2) The HTMS experiments were performed in positive ionization mode on a RapidFire 300 instrument (Agilent Technologies, Santa Clara, Calif.), coupled with an ABSiex QTrap 4000 system with an Electrospray Ionization source (RF-MS) (Concord, ON, Canada). […] The entire system was operated using the RapidFire software interfaced with Analyst software for the mass spectrometer.
(§3) 11-point dosing series were made for each compound by serially diluting 1:3 or 1:4 in DMSO, with point 12 being a DMSO control. From the serial dilution plates, sample was transferred to a 384 wells assay plate (#781280, Greiner, Monroe, N.C.) using Labcyte Echo (Sunnyvale, Calif.), or Biosero ATS (San Diego, Calif.). The compounds were tested in duplicate. Column 12 was used for positive controls, and column 24 contained negative controls with no enzyme added. A compound from our internal collection, with inhibitory activity for JAK isoforms, was used as a reference compound. The final concentration of DMSO was ≤0.25% in a 20 μL reaction. The enzyme reaction was initiated by the addition of 10 μL of enzyme and ATP mixture to 10 μL of substrate solution prepared in reaction buffer (50 mM MOPS pH 7.5, 10 mM MgCl2, 1 mM EDTA, 2 mM DTT, 0.002% Tween-20). The Tyk2 enzyme was pre-incubated with 2 mM ATP for 30 min prior to the reaction initiation. Immediately after the addition of the enzyme to the reaction mixture, the plate was centrifuged at 1000 rpm for 1 minute and incubated at 25° C. for 45 minutes for JAK3 and 90 minutes for JAK1, JAK2 and Tyk2. The reaction was quenched by the addition of 20 μL of 0.5% TFA containing 0.15 μM of internal standard peptide using Multidrop Combi reagent dispenser (Thermo Scientific, Waltham, Mass.). […] After the quench, the assay plate was centrifuged at 3000 rpm for 3 minutes and sealed with pierceable aluminum foil (Cat#06644-001, Agilent) using a PlateLoc (Agilent Technologies, Santa Clara, Calif.). The plates then were transferred on to the RapidFire for the MS analysis. Compound inhibition was assessed by a decrease of the phosphorylated product levels in sample wells compared to the non-inhibited enzyme reaction.
(§4) The sample analysis on the RapidFire was performed using a mobile phase A1 consisting of Water/TFA/FA (100:0.01:0.1, v/v/v), a mobile phase B1 consisting of ACN/Water/TFA/FA (80:20:0.01:0.1, v/v/v). […] The samples were aspirated directly from the 384-well assay plate and delivered onto RF-MS microscale solid-phase C4 extraction cartridge (Type A). The undesired component such as salt, cofactor, detergent and large protein were washed out and the retained analytes (substrate, product and IS) were coeluted directly onto the AB Siex Qtrap 4000 system.

Series [7] addresses JAK3-JH1JH2 (Homo sapiens (Human), UniProt P52333). In words: Enzymatic inhibition assay (HTMS). Format: biochemical. To be noted: 150 μM ATP; read-out: JAK3_I_JH1JH2 IC50.
Excerpt: as §1, §2, §3, §4

Series [8] addresses Tyk2-JH1JH2 (Homo sapiens (Human), UniProt P29597, C1142A/C936A). Nature of the series: Enzymatic inhibition assay (HTMS). To be noted: 50 μM ATP; read-out: Tyk2_I_JH1JH2 IC50. Format: biochemical.
Excerpt: as §1, §2, §3, §4

For series [9] the following is noted: pH 6.5.
Series [10] concerns IFNα pSTAT4 (JAK1/TYK2). Nature of the series: IFNα pSTAT4 (JAK1/TYK2) cellular assay, AlphaLISA in PBMCs. Format: cell-based. To be noted: PBMC, IFNα 4 ng/mL. The procedure:
The AlphaLISA assay (based on Alpha Technology from PerkinElmer) was performed by first plating freshly thawed PBMCs (Biological Specialty Corporation) in 384-well plates at 100,000 cells per 6 μL per well in DMEM (Dulbecco's Modified Eagle Medium) containing 10% FBS (fetal bovine serum) and 1,000 I.U./mL penicillin and 1,000 μg/mL streptomycin. The cells were then treated with 2 μL/well of compounds diluted in DMSO at half-log titrated concentrations, with a highest test concentration of 10 μM and 0.5% final DMSO concentration, for thirty minutes at 37° C. Next, the cells were stimulated with 2 μL/well of IFNα (PBL Assay Science Cat. No. 11101-2) at 4 ng/mL for thirty minutes at 37° C. The cellular reactions were terminated by the addition of 2 μL/well of lysis buffer (PerkinElmer Cat. No. ALSU-PST4-A10K) followed by an incubation of five minutes at room temperature. 4 μL/well of acceptor mix (PerkinElmer Cat. No. ALSU-PST4-A10K) was added to the cells and incubated in the dark for one hour at room temperature. Then, 4 μL/well of donor mix (PerkinElmer Cat. No. ALSU-PST4-A10K) was added to the cells and incubated in the dark overnight at room temperature. Finally, the plates were read on a PerkinElmer EnVision for detection of the time-resolved fluorescence signal. The percentage of IFNα-dependent pSTAT4 inhibition was determined at the compound test concentrations; and for each compound, a dose curve was generated and the IC50 was calculated. Compound IC50 was calculated by nonlinear regression, sigmoidal dose response analysis of the half-log dilution titration curve of the compound concentration vs. Alpha signal. The term “Alpha” is defined in the immediately preceding cellular assay description.
A general note: In Alpha technology, singlet oxygen from a donor bead excites a nearby acceptor bead.

[11] abbreviates: MDCK-MDR1, pH 7.4, @ 5 μM, without elacridar, read-out: MDCK-MDR1 Papp(A-B).
Where [12] appears, read: MDCK-MDR1, pH 7.4, with elacridar 2 μM, @ 5 μM, with P-gp inhibitor elacridar (2 μM), read-out: MDCK-MDR1 P^eapp(A-B).

Converted amounts (≈) assume the structure as drawn. Like-named read-outs stand apart in the source and are kept apart here. Where only a bound is given, the exact number is not on record here.

Chain of Tyk2-JH1JH2 (P29597 580-1182 C936A/C1142A): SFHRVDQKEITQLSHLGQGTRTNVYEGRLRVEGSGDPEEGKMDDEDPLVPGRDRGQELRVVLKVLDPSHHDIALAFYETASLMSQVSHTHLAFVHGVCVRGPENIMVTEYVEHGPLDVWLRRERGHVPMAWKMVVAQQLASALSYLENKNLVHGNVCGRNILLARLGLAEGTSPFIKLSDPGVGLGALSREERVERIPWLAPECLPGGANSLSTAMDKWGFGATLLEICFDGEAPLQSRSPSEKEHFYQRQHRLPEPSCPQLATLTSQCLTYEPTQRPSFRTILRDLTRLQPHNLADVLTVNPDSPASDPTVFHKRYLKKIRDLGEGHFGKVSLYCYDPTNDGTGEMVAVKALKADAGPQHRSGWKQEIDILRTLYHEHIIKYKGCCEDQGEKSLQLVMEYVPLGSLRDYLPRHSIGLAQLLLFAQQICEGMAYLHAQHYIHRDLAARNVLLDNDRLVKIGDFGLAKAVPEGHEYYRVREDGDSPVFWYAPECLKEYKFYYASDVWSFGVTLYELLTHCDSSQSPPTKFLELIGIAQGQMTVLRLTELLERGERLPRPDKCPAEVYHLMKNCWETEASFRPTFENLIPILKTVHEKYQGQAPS
Chain of JAK1-JH1JH2 (P23458 574-1154): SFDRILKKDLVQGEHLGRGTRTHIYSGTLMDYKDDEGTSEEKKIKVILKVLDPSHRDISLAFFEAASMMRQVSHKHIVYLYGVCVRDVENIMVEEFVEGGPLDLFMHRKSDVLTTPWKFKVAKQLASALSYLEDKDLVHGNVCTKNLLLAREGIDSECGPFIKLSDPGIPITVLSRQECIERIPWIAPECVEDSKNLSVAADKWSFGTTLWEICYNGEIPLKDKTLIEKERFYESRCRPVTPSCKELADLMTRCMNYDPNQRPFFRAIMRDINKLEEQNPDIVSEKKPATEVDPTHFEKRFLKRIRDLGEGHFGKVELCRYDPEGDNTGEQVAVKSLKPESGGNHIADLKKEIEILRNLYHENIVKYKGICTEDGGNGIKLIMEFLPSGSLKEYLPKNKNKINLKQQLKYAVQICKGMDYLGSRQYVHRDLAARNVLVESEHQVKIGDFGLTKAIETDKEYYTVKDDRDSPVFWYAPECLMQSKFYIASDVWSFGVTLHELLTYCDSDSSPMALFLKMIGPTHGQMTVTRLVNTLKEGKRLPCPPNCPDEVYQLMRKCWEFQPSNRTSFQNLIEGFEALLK
Chain of JAK3-JH1JH2 (P52333 512-1124): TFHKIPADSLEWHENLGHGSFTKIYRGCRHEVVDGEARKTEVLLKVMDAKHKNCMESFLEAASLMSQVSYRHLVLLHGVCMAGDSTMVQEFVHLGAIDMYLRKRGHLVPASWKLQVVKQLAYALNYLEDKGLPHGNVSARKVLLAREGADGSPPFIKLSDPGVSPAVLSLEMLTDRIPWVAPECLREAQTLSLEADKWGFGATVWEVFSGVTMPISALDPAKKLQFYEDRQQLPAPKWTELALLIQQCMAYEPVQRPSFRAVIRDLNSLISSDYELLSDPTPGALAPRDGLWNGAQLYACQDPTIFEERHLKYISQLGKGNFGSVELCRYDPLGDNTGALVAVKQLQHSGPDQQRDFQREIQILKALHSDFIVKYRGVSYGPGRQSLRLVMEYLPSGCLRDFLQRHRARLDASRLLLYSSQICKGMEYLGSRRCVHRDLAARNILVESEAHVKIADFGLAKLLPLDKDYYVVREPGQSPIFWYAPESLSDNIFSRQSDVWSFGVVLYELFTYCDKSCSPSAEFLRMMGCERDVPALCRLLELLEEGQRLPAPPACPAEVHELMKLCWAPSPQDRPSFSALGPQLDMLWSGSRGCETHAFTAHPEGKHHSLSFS

On to `Cc1nc2cnc3[nH]ccc3c2n1[C@H]1CC[C@H](CC#N)CC1` [A], for which the Papp A→B in series [1] came to 22 ×10⁻⁶ cm/s. Further, the Papp A→B at 60 min, 5 μM in [2] (setting [11]) was 1.3 ×10⁻⁶ cm/s. The molecule also gave a basolateral-to-apical permeability (Papp B→A) at 60 min, 5 μM in series [2] (@ 5 μM) of 55.3 ×10⁻⁶ cm/s. Besides, the efflux ratio at 60 min, 5 μM in [2] is 43. Further, the solubility in series [3] (pH 6.5, fassif) is more than 400 µM; in [3] (simulated gastric fluid), more than 400 µM. In addition, the “Plasma Concentration After p.o. Dosing, Mean” value in [4] (Time = 0.5 h) is recorded as 347.0 ng/mL; in series [4] (Time = 2 h), 69.1 ng/mL; in series [4] (Time = 4 h), 84.5 ng/mL. In [4] (Time = 4 h), the “Colon Concentration After p.o. Dosing, Mean” value is 895.0 ng/g.

As for `N#CC[C@H]1CC[C@H](n2c(CO)nc3cnc4[nH]ccc4c32)CC1` [B], the Papp A→B in [1] is 1.7 ×10⁻⁶ cm/s. In addition, the Papp A→B at 60 min, 5 μM in series [2] (setting [11]) is 0.4 ×10⁻⁶ cm/s. The apparent permeability from basolateral to apical (Papp B→A) at 60 min, 5 μM in series [2] (@ 5 μM) turned out to be 23.5 ×10⁻⁶ cm/s. The efflux ratio at 60 min, 5 μM in series [2] turned out to be 59. Besides, the solubility in [3] (pH 6.5, fassif) was 75 µM (≈ 23.2 µg/mL); in series [3] (simulated gastric fluid) it was more than 400 µM. Also, the “Plasma Concentration After p.o. Dosing, Mean” value in series [4] (Time = 0.5 h) worked out at 352.7 ng/mL; in [4] (Time = 2 h), 66.3 ng/mL; in series [4] (Time = 4 h) it was 11.3 ng/mL. Further, the “Colon Concentration After p.o. Dosing, Mean” value in series [4] (Time = 4 h) was found to be 6076.7 ng/g.

`Cn1cc(NC(=O)Cc2nc3cnc4[nH]ccc4c3n2[C@H]2CC[C@H](CC#N)CC2)cn1` [Ex. 9, 2-(1-((1r,4r)-4-(Cyanomethyl)cyclohexyl)-1,6-dihydroimidazo[4,5-d]pyrrolo[2,3-b]pyridin-2-yl)-N-(1-methyl-1H-pyrazol-4-yl)acetamide]: the IC50 worked out at 0.0112 µM in [5]; 0.0002 µM in [6]; 0.0799 µM in [7]; 0.0047 µM in series [8]; 0.0359 µM in series [10]. The Papp A→B at 60 min, 5 μM in series [2] (setting [12]) stood at 0.6 ×10⁻⁶ cm/s. The molecule further returned an SIF solubility in [9] of more than 400 µM.

As to `N#CC[C@H]1CC[C@H](n2c(CC(=O)Nc3cc[nH]n3)nc3cnc4[nH]ccc4c32)CC1` [Ex. 11, 2-(1-((1r,4r)-4-(Cyanomethyl)cyclohexyl)-1,6-dihydroimidazo[4,5-d]pyrrolo[2,3-b]pyridin-2-yl)-N-(1H-pyrazol-3-yl)acetamide], the concentration for half-maximal inhibition (IC50) was determined as 0.0491 µM in series [5]; 0.0004 µM in [6]; 0.0303 µM in series [7]; 0.0015 µM in series [8]; 0.0965 µM in [10]. Also, in [2] (setting [12]), the Papp A→B at 60 min, 5 μM was 0.8 ×10⁻⁶ cm/s. This molecule showed an SIF solubility in series [9] of more than 400 µM.
